Legend:
[1] = biological target: T1, Human CD73 (amino acid residues 27-549) (Homo sapiens, UniProt P21589); experiment: CD73 enzymatic assay (luciferase-based indirect assay, CellTiter-Glo); assay type: biochemical; conditions: 0.4 nM CD73, 150 μM AMP, 1 hour at room temperature
T1 construct: Human CD73 (amino acid residues 27-549); His tag (N); made in house; host or cells: E. coli
T1 sequence (P21589 27-549): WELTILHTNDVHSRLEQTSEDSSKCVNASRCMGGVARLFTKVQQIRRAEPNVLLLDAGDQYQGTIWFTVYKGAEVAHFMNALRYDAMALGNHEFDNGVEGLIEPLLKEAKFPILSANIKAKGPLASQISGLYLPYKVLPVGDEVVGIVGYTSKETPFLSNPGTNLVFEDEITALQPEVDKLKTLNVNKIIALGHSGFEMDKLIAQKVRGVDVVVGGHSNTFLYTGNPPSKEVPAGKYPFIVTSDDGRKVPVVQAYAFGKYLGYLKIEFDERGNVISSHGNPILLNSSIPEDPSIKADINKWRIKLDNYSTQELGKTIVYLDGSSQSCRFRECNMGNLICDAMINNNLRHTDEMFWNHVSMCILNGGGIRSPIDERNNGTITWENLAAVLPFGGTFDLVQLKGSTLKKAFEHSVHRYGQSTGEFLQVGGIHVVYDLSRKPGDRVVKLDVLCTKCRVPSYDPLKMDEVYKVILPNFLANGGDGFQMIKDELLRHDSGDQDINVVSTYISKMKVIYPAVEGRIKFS
Experimental: CD73 enzymatic activity was measured in a luciferase-based indirect assay using CellTiter-Glo® system from Promega. The luciferase reaction in the presence of ATP is inhibited by AMP, a primary substrate of CD73. Addition of CD73 enzyme to the reaction converts AMP to adenosine, and release the inhibition, producing a luminescent signal. Inhibition of CD73 leads to the decrease of this luminescent signal.
Human CD73 (amino acid residues 27-549) with N-Terminal His tag was purified in E. coli. All the assay components were prepared in 50 mM HEPEs buffer (pH 7.4) with 0.01% Tween® 20. The CD73 enzymatic assay was performed using 0.4 nM CD73 and 150 μM AMP. 9.5 μL of CD73 protein and 9.5 μL of AMP were added to the wells of a 384 well plate containing 1 μL of various concentrations of test compound or DMSO vehicle and incubated for 1 hour at room temperature. 16 wells containing CD73, AMP and 5% DMSO served as high control. 16 wells containing AMP and 5% DMSO served as low control. Enzymatic reaction was stopped and AMP level was measured indirectly by adding 5 μL of CellTiter-Glo® 2.0 reagent and 5 μL of ATP with a final concentration of 1 μM. Following incubation of the plate at room temperature for 30 minutes, luminescent signal was read on a Tecan plate reader. The percentage inhibition at individual concentrations relative to high and low controls was calculated. The data were analyzed by using nonlinear regression to generate IC50 values.

[2] = biological target: T2, human CD73 (Homo sapiens, UniProt P21589); experiment: Inhibitor activity against CD73 in cell based assay (CD73 expressing CHO-K1 cells); conditions: CHO-K1 cells expressing human CD73, 150 μM AMP, 4 hours of incubation; read-out: CHO-K1 CELL VARIANT: CD73 IC50
T2 construct: expressed in transfected cells
T2 sequence (P21589 27-549): T1 sequence (P21589 27-549)
Experimental: Determine Inhibitor Activity Against CD73 in Cell Based Assay
CD73 expressing CHO-K1 cell clones were generated upon stable transfection of a plasmid expressing human CD73 under the control of CMV promoter. Cells were selected in Ham's F-12K (Kaighn's) media supplemented with 10% fetal bovine serum and 1 mg/ml G418 at 37° C. in a humidified incubator supplied with 5% CO2. The assays were performed as follows. Cells were seeded in a 96 well plate in 50 μL of culture media at a density of 1×10^4 per well. Compound at a maximal concentration of 5 mM was serially diluted 1:3 in DMSO for a total of 8 point titration. A 2 μL aliquot of each dilution point was added to 248 μL culture media and 25 µL was added to each well, providing 10 μM compound at the maximum concentration point. AMP was diluted in culture media and 25 μL was added to each well with a final concentration of 150 μM. 4 wells containing 0.2% DMSO treated cells and AMP served as high controls and 4 wells containing media only with 0.2% DMSO and AMP served as low controls. After 4 hours of incubation, 20 μL of the supernatant was transferred to a 384 well plate. AMP level in supernatant was measured indirectly by adding 5 μL of CellTiter-Glo® 2.0 reagent and 5 μL of ATP with a final concentration of 1 μM. Following incubation of plate at room temperature for 30 minutes, luminescent signal was read on a Tecan plate reader. The percentage inhibition at individual concentrations relative to high and low controls was calculated. The data were analyzed by using nonlinear regression to generate IC50 values.

| Structure (SMILES) | IC50 [1] | IC50 [2] |
| --- | --- | --- |
| O=C(N[C@@H]1CCN(c2cn[nH]c(=O)c2Cl)C1)OC1CCCCC1 [P-0015, cyclohexyl (R)-(1-(5-chloro-6-oxo-1,6-dihydropyridazin-4-yl)pyrrolidin-3-yl)carbamate] | 0.001 to 10 µM | 10 to 100 µM |
| O=C(NC1CCCCC1)O[C@@H]1CCN(c2cn[nH]c(=O)c2Cl)C1 [P-0018, (R)-1-(5-chloro-6-oxo-1,6-dihydropyridazin-4-yl)pyrrolidin-3-yl cyclohexylcarbamate] | 0.001 to 10 µM | 0.001 to 10 µM |
| O=C(NC1CCC(F)(F)CC1)N[C@@H]1CCN(c2cn[nH]c(=O)c2Cl)C1 [P-0022, (R)-1-(1-(5-chloro-6-oxo-1,6-dihydropyridazin-4-yl)pyrrolidin-3-yl)-3-(4,4-difluorocyclohexyl)urea] | 0.001 to 10 µM | 10 to 100 µM |
| O=C(N[C@@H]1CCN(c2cn[nH]c(=O)c2Cl)C1)OC1CCCC1 [P-0030, cyclopentyl (R)-(1-(5-chloro-6-oxo-1,6-dihydropyridazin-4-yl)pyrrolidin-3-yl)carbamate] | 0.001 to 10 µM | 10 to 100 µM |
| O=C(NC1CCN(C(=O)C(F)(F)F)CC1)N[C@@H]1CCN(c2cn[nH]c(=O)c2Cl)C1 [P-0047, (R)-1-(1-(5-chloro-6-oxo-1,6-dihydropyridazin-4-yl)pyrrolidin-3-yl)-3-(1-(2,2,2-trifluoroacetyl)piperidin-4-yl)urea] | 0.001 to 10 µM | 10 to 100 µM |
| Cc1c(N2CC[C@@H](NC(=O)OC(C)(C)C)C2)cn[nH]c1=O [P-0056, tert-butyl (R)-(1-(5-methyl-6-oxo-1,6-dihydropyridazin-4-yl)pyrrolidin-3-yl)carbamate] | 0.001 to 10 µM | 10 to 100 µM |
| Cc1c(N2CC[C@@H](NC(=O)NC3CCCC3)C2)cnn(C(=O)NC2CCCC2)c1=O [P-0058, (R)-N-cyclopentyl-4-(3-(3-cyclopentylureido)pyrrolidin-1-yl)-5-methyl-6-oxopyridazine-1(6H)-carboxamide] | 0.001 to 10 µM | 10 to 100 µM |
| N#Cc1c(N2CC[C@@H](NC(=O)NC3CCCC3)C2)cn[nH]c1=O [P-0064, (R)-1-(1-(5-cyano-6-oxo-1,6-dihydropyridazin-4-yl)pyrrolidin-3-yl)-3-cyclopentylurea] | 0.001 to 10 µM | 10 to 100 µM |
| N#Cc1c(N2CC[C@@H](NC(=O)NC3CCCCC3)C2)cn[nH]c1=O [P-0065, (R)-1-(1-(5-cyano-6-oxo-1,6-dihydropyridazin-4-yl)pyrrolidin-3-yl)-3-cyclohexylurea] | 0.001 to 10 µM | 0.001 to 10 µM |
| CN(C(=O)OC1CCCCC1)C1CCN(c2cn[nH]c(=O)c2Cl)C1 (centres unmarked) [P-0068, cyclohexyl (1-(5-chloro-6-oxo-1,6-dihydropyridazin-4-yl)pyrrolidin-3-yl)(methyl)carbamate] | 0.001 to 10 µM | 10 to 100 µM |
| N#CC1(NC(=O)OC2CCCCC2)CCN(c2cn[nH]c(=O)c2Cl)C1 (centres unmarked) [P-0074, cyclohexyl (1-(5-chloro-6-oxo-1,6-dihydropyridazin-4-yl)-3-cyanopyrrolidin-3-yl)carbamate] | 0.001 to 10 µM | 10 to 100 µM |
| CS(=O)(=O)N1CCC(NC(=O)N[C@@H]2CCN(c3cn[nH]c(=O)c3Cl)C2)CC1 [P-0076, (R)-1-(1-(5-chloro-6-oxo-1,6-dihydropyridazin-4-yl)pyrrolidin-3-yl)-3-(1-(methylsulfonyl)piperidin-4-yl)urea] | 0.001 to 10 µM | 10 to 100 µM |
| O=C(NC1CCCCC1)OC1CCN(c2cn[nH]c(=O)c2Cl)C1 (centres unmarked) [P-0077, 1-(5-chloro-6-oxo-1,6-dihydropyridazin-4-yl)pyrrolidin-3-yl cyclohexylcarbamate] | 0.001 to 10 µM | 0.001 to 10 µM |

Now from value to compound:

| IC50 [1] | IC50 [2] | Structure (SMILES) |
| --- | --- | --- |
| 0.001 to 10 µM | 0.001 to 10 µM | O=C(NC1CCCC1)O[C@@H]1CCN(c2cn[nH]c(=O)c2Cl)C1 [P-0017, (R)-1-(5-chloro-6-oxo-1,6-dihydropyridazin-4-yl)pyrrolidin-3-yl cyclopentylcarbamate] |
| 0.001 to 10 µM | 10 to 100 µM | O=C(NC1CCCC1)O[C@H]1CCN(c2cn[nH]c(=O)c2Cl)C1 [P-0020, (S)-1-(5-chloro-6-oxo-1,6-dihydropyridazin-4-yl)pyrrolidin-3-yl cyclopentylcarbamate] |
| 0.001 to 10 µM | 10 to 100 µM | O=C(NC1CCCCC1)O[C@H]1CCN(c2cn[nH]c(=O)c2Cl)C1 [P-0021, (S)-1-(5-chloro-6-oxo-1,6-dihydropyridazin-4-yl)pyrrolidin-3-yl cyclohexylcarbamate] |
| 0.001 to 10 µM | 0.001 to 10 µM | O=C(NC1CCCCC1)N[C@@H]1CCN(c2cn[nH]c(=O)c2Cl)C1 [P-0039, (R)-1-(1-(5-chloro-6-oxo-1,6-dihydropyridazin-4-yl)pyrrolidin-3-yl)-3-cyclohexylurea] |
| 0.001 to 10 µM | 0.001 to 10 µM | O=C(NC1CCCC1)N[C@@H]1CCN(c2cn[nH]c(=O)c2Cl)C1 [P-0046, (R)-1-(1-(5-chloro-6-oxo-1,6-dihydropyridazin-4-yl)pyrrolidin-3-yl)-3-cyclopentylurea] |
| 0.001 to 10 µM | 10 to 100 µM | CC(C)(C)OC(=O)N1CCC(NC(=O)N[C@@H]2CCN(c3cn[nH]c(=O)c3Cl)C2)CC1 [P-0051, tert-butyl (R)-4-(3-(1-(5-chloro-6-oxo-1,6-dihydropyridazin-4-yl)pyrrolidin-3-yl)ureido)piperidine-1-carboxylate] |
| 0.001 to 10 µM | 10 to 100 µM | CS(=O)(=O)N1CCC(NC(=O)N[C@@H]2CCN(c3cn[nH]c(=O)c3Cl)C2)C1 (stereo partly drawn) [P-0052, 1-((R)-1-(5-chloro-6-oxo-1,6-dihydropyridazin-4-yl)pyrrolidin-3-yl)-3-(1-(methylsulfonyl)pyrrolidin-3-yl)urea] |
| 0.001 to 10 µM | 10 to 100 µM | O=C(NC1CCS(=O)(=O)C1)N[C@@H]1CCN(c2cn[nH]c(=O)c2Cl)C1 (stereo partly drawn) [P-0054, 1-((R)-1-(5-chloro-6-oxo-1,6-dihydropyridazin-4-yl)pyrrolidin-3-yl)-3-(1,1-dioxidotetrahydrothiophen-3-yl)urea] |
| 0.001 to 10 µM | 10 to 100 µM | Cc1c(N2CC[C@@H](NC(=O)NC3CCCC3)C2)cn[nH]c1=O [P-0057, (R)-1-cyclopentyl-3-(1-(5-methyl-6-oxo-1,6-dihydropyridazin-4-yl)pyrrolidin-3-yl)urea] |
| 0.001 to 10 µM | 10 to 100 µM | Cc1c(N2CC[C@@H](NC(=O)NC3CCCCC3)C2)cn[nH]c1=O [P-0059, (R)-1-cyclohexyl-3-(1-(5-methyl-6-oxo-1,6-dihydropyridazin-4-yl)pyrrolidin-3-yl)urea] |
| 0.001 to 10 µM | 10 to 100 µM | C[C@H]1CN(c2cn[nH]c(=O)c2Cl)C[C@@H]1NC(=O)NC1CCCCC1 [P-0062, 1-((3R,4S)-1-(5-chloro-6-oxo-1,6-dihydropyridazin-4-yl)-4-methylpyrrolidin-3-yl)-3-cyclohexylurea] |
| 0.001 to 10 µM | 10 to 100 µM | C[C@H]1CN(c2cn[nH]c(=O)c2Cl)C[C@@H]1NC(=O)OC1CCCCC1 [P-0063, cyclohexyl ((3R,4S)-1-(5-chloro-6-oxo-1,6-dihydropyridazin-4-yl)-4-methylpyrrolidin-3-yl)carbamate] |

— patent US12509444B2, “Compounds and methods for CD73 modulation and indications therefor” (Plexxikon Inc., priority 2019, dated 2025)
